Data on 27 compounds can be found in US8546405B2, “Anti-viral compounds” (Abbott Laboratories, priority 2008, dated 2013).

Structures are written as SMILES. Some results are limits rather than exact numbers.

One experiment relates to replicon 1b-Con1. The experiment can be described thus: HCV subgenomic replicon luciferase reporter assay, replicon 1b-Con1. The experiment is classed as cell-based, Hepatitis C virus (HCV) genotype 1b-Con1. The conditions noted are these: Hepatitis C virus, 72 h; stable subgenomic replicon cell line, luciferase reporter, three days incubation; values given as ranges or bound. (In general: Replicon systems follow genome replication, usually without infectious particles.)
As for `CC(C)c1ccc2c(Nc3cc(C#Cc4ccc(Oc5ccc(CO)cc5)c(Nc5ncnc6nc(C(C)C)ccc56)c4)ccc3Oc3ccc(CO)cc3)ncnc2n1` [Example 23], the IC50 was in the range of 0.1 to 10 nM. The same measure, in the same setting: with `CC(C)c1ccc2c(Nc3cc(CN(Cc4ccc(Sc5ccc(N)cc5)c(Nc5ncnc6nc(C(C)C)ccc56)c4)c4ccccc4)ccc3Sc3ccc(N)cc3)ncnc2n1` [Example 9] the figure was below 0.1 nM; with `CC(C)c1ccc2c(Nc3cc(C#Cc4ccc(Sc5ccc(N)cc5)c(Nc5ncnc6nc(C(C)C)ccc56)c4)ccc3Sc3ccc(N)cc3)ncnc2n1` [Example 8, N,N′-(5,5′-(ethyne-1,2-diyl)bis(2-(4-aminophenylthio)-5,1-phenylene))bis(7-isopropylpyrido[2,3-d]pyrimidin-4-amine)], below 0.1 nM. Same read-out and setting: the value for `COc1ccc(CN(Cc2ccc(Sc3ccc(N)cc3)c(Nc3ncnc4nc(C(C)C)ccc34)c2)Cc2ccc(Sc3ccc(N)cc3)c(Nc3ncnc4nc(C(C)C)ccc34)c2)c(OC)c1` [Example 11] was 0.1 to 10 nM; that for `CC(C)c1ccc2c(Nc3cc(C(=O)NNC(=O)c4ccc(Sc5ccc(N)cc5)c(Nc5ncnc6nc(C(C)C)ccc56)c4)ccc3Sc3ccc(N)cc3)ncnc2n1` [Example 1, 4-(4-aminophenylthio)-N′-(4-(4-aminophenylthio)-3-(7-isopropylpyrido[2,3-d]pyrimidin-4-ylamino)benzoyl)-3-(7-isopropylpyrido[2,3-d]pyrimidin-4-ylamino)benzohydrazide] was 0.1 to 10 nM; that for `COc1ccc(Sc2ccc(CN(Cc3ccc(Sc4ccc(OC)cc4)c(Nc4ccnc5nc(C)ccc45)c3)C(C)C)cc2Nc2ccnc3nc(C)ccc23)cc1` [Example 28] was 10 to 100 nM. The same measure, in the same setting: the value for `Cc1ccc2c(Nc3cc(C#Cc4ccc(Sc5ccc(N)cc5)c(Nc5ncnc6nc(C)ccc56)c4)ccc3Sc3ccc(N)cc3)ncnc2n1` [Example 21] was 0.1 to 10 nM; that for `CC(C)c1ccc2c(Nc3cc(C#Cc4ccc(Sc5ccccc5)c(Nc5ncnc6nc(C(C)C)ccc56)c4)ccc3Sc3ccccc3)ncnc2n1` [Example 15] was 0.1 to 10 nM. Consider `CC(C)c1ccc2c(Nc3cc(C#Cc4ccc(Sc5ccc(OCc6ccccc6)cc5)c(Nc5ncnc6nc(C(C)C)ccc56)c4)ccc3Sc3ccc(OCc4ccccc4)cc3)ncnc2n1` [Example 26], for which the IC50 was 0.1 to 10 nM. The compound `Cc1ccc2c(Nc3cc(C#Cc4ccc(Sc5ccc(F)cc5)c(Nc5ccnc6nc(C)ccc56)c4)ccc3Sc3ccc(F)cc3)ccnc2n1` [Example 22] yielded an IC50 of 10 to 100 nM. Still for that read-out and setting: the value for `CC(C)c1ccc2c(Nc3cc(C(=O)NCCNC(=O)c4ccc(Sc5ccc(N)cc5)c(Nc5ncnc6nc(C(C)C)ccc56)c4)ccc3Sc3ccc(N)cc3)ncnc2n1` [Example 5, N,N′-(ethane-1,2-diyl)bis(4-(4-aminophenylthio)-3-(7-isopropylpyrido[2,3-d]pyrimidin-4-ylamino)benzamide)] was 0.1 to 10 nM; that for `CC(C)c1ccc2c(Nc3cc(NC(=O)Nc4ccc(Sc5ccc(N)cc5)c(Nc5ncnc6nc(C(C)C)ccc56)c4)ccc3Sc3ccc(N)cc3)ncnc2n1` [Example 3, 1,3-bis(4-(4-aminophenylthio)-3-(7-isopropylpyrido[2,3-d]pyrimidin-4-ylamino)phenyl)urea] was 10 to 100 nM. In the case of `CC(C)c1ccc2c(Nc3cc(C#Cc4ccc(Sc5ccc(O)cc5)c(Nc5ncnc6nc(C(C)C)ccc56)c4)ccc3Sc3ccc(O)cc3)ncnc2n1` [Example 18], the 50% inhibitory concentration (IC50) lay in the range of 0.1 to 10 nM.

Regarding `CC(C)c1ccc2c(Nc3cc(NC(=O)c4ccc(Sc5ccc(N)cc5)c(Nc5ncnc6nc(C(C)C)ccc56)c4)ccc3Sc3ccc(N)cc3)ncnc2n1` [Example 2, 4-(4-aminophenylthio)-N-(4-(4-aminophenylthio)-3-(7-isopropylpyrido[2,3-d]pyrimidin-4-ylamino)phenyl)-3-(7-isopropylpyrido[2,3-d]pyrimidin-4-ylamino)benzamide], the IC50 is 0.1 to 10 nM. Still for that read-out and setting: the value for `CC(C)c1ccc2c(Nc3cc(CN(Cc4ccc(Sc5ccc(N)cc5)c(Nc5ncnc6nc(C(C)C)ccc56)c4)C(C)C)ccc3Sc3ccc(N)cc3)ncnc2n1` [Example 24] was 0.1 to 10 nM. Same read-out and setting: the value for `Cc1ccc2c(Nc3cc(-c4ccc(-c5ccc(Sc6ccc(N)cc6)c(Nc6ncnc7nc(C)ccc67)c5)cc4)ccc3Sc3ccc(N)cc3)ncnc2n1` [Example 13] was 0.1 to 10 nM. In the case of `CC(C)c1ccc2c(Nc3cc(C#Cc4ccc(Sc5ccc(N(C)C)cc5)c(Nc5ncnc6nc(C(C)C)ccc56)c4)ccc3Sc3ccc(N(C)C)cc3)ncnc2n1` [Example 16], the IC50 was in the range of 0.1 to 10 nM.

Regarding `CC(C)c1ccc2c(Nc3cc(C#Cc4ccc(Sc5cccc(N)c5)c(Nc5ncnc6nc(C(C)C)ccc56)c4)ccc3Sc3cccc(N)c3)ncnc2n1` [Example 19], the IC50 lay within 0.1 to 10 nM.

`CC(C)c1ccc2c(Nc3cc(-c4ccc(-c5ccc(Sc6ccc(N)cc6)c(Nc6ncnc7nc(C(C)C)ccc67)c5)nc4)ccc3Sc3ccc(N)cc3)ncnc2n1` [Example 12] came in with an IC50 of 0.1 to 10 nM. Same read-out and setting: the value for `CC(C)c1ccc2c(Nc3cc(C#Cc4ccc(Oc5ccc(N)cc5)c(Nc5ncnc6nc(C(C)C)ccc56)c4)ccc3Oc3ccc(N)cc3)ncnc2n1` [Example 20] was 0.1 to 10 nM; that for `CC(C)c1ccc2c(Nc3cc(C#Cc4ccc(Oc5ccc(O)cc5)c(Nc5ncnc6nc(C(C)C)ccc56)c4)ccc3Oc3ccc(O)cc3)ncnc2n1` [Example 25] was 0.1 to 10 nM. Same read-out and setting: the value for `CC(C)c1ccc2c(Nc3cc(-c4ccc(-c5ccc(Sc6ccc(N)cc6)c(Nc6ncnc7nc(C(C)C)ccc67)c5)cc4)ccc3Sc3ccc(N)cc3)ncnc2n1` [Example 4, 4,4″-(4-amino-phenylsulfanyl)-N*3*,N*3″*-(7-isopropylpyrido[2,3-d]pyrimidin-4-yl)-[1,1′;4′,1″]terphenyl-3,3″-diamine] was 0.1 to 10 nM; that for `CC(C)c1ccc2c(Nc3cc(C#Cc4ccc(Oc5ccccc5)c(Nc5ncnc6nc(C(C)C)ccc56)c4)ccc3Oc3ccccc3)ncnc2n1` [Example 17] was 0.1 to 10 nM; that for `CC(C)c1ccc2c(Nc3cc(C(=O)N4CCN(C(=O)c5ccc(Sc6ccc(N)cc6)c(Nc6ncnc7nc(C(C)C)ccc67)c5)CC4)ccc3Sc3ccc(N)cc3)ncnc2n1` [Example 6, piperazine-1,4-diylbis((4-(4-aminophenylthio)-3-(7-isopropylpyrido[2,3-d]pyrimidin-4-ylamino)phenyl)methanone)] was 0.1 to 10 nM. `CC(C)c1ccc2c(Nc3cc(C#Cc4ccc(Sc5ccc(F)cc5)c(Nc5ncnc6nc(C(C)C)ccc56)c4)ccc3Sc3ccc(F)cc3)ncnc2n1` [Example 14] displayed an IC50 of 0.1 to 10 nM.

Staying with this experiment, now noted: Hepatitis C virus; same test; cell prints lower limit in nM and upper limit in μM.
The compound `CC(C)c1ccc2c(Nc3cc(C(=O)NCCNC(=O)c4ccc(Sc5ccccc5)c(Nc5ncnc6nc(C(C)C)ccc56)c4)ccc3Sc3ccccc3)ncnc2n1` [Example 10] registered a 50% inhibitory concentration (IC50) of 100 to 10000 nM. The same measure, in the same setting: the value for `CC(C)c1ccc2c(Nc3cccc(C(=O)Nc4ccc(Sc5ccc(N)cc5)c(Nc5ncnc6nc(C(C)C)ccc56)c4)c3)ncnc2n1` [Example 7, N-(4-(4-aminophenylthio)-3-(7-isopropylpyrido[2,3-d]pyrimidin-4-ylamino)phenyl)-3-(7-isopropylpyrido[2,3-d]pyrimidin-4-ylamino)benzamide] was 100 to 10000 nM.

The term IC50 denotes the concentration that gives 50% inhibition. Read a high IC50 as weaker potency.
